# Measurements published in patent publication US20220213126A1, “SMALL MOLECULE AUTOPHAGY INDUCERS FOR THE TREATMENT OF CANCER AND NEURODEGENERATIVE DISEASES” (John Wayne Cancer Institute, priority 2019, published 2022).
# Read-outs that look alike come from different tables or passages of the source.
# What was measured:
# [1] = test system: polyQ-expressing C. elegans; assay: PolyQ aggregation in C. elegans Huntington's disease model; type: in vivo; settings: 1 μM, 72 hours
# Description: Synchronized populations of polyQ-expressing C. elegans were grown for 72 hours on media containing 1 μM VMY-BC-1. PolyQ aggegrative vacuoles were detected using confocal microscopy. PolyQ aggregations were decreased compared to vehicle (DMSO) (FIG. 21A). Synchronized populations of wild-type worms were grown on media containing VMY-BC-1 from 0.1 to 10 μM.
# [2] = Pharmacokinetics of BC-4 and BC-5 in mouse plasma and brain; type: in vivo; settings: Balb/c mice, single oral dose 5 mg/kg; for Cmax: read-out: Cmax; for Tmax: read-out: Tmax (converted); for half-life: read-out: T½
# Description: Pharmacokinetics of BC-4 and BC-5 were compared to BC-1. Pharmacokinetics were assessed in Balb/c mice administered a single oral dose of 5 mg/kg of the indicated compound (Tables 11 and 12).
# [3] = test system: MDA-MB-231 tumor xenografts; assay: MDA-MB-231 tumor xenograft efficacy; type: in vivo, athymic nude mice
# Description: To evaluate the anti-tumor efficacy of VMY-BC-1 in vivo, MDA-MB-231 tumor xenografts were established in the flanks of athymic nude mice. 5×10^6 MDA-MB-231 TNBC cells in 1×HBSS with 1:1 Matrigel® were implanted subcutaneously in the flank of 5-6 week old female athymic nude mice (CrTac:Ncr-Foxn1^nu; Taconic Biosciences, India). Mice (n=8) were treated with vehicle (2% (v/v) Tween® 80+98% (v/v) of 0.5% (w/v) hydroxypropyl methylcellulose (HPMC) in water) or VMY-BC-1 75 mg/kg PO daily for 14 days. The dose volume was 10 mL/kg. Tumor volume, tumor growth inhibition (TGI), body weight, and clinical signs were monitored. Tumor growth was measured twice weekly using a digital Vernier caliper. Tumor volume was calculated as [length×width^2]/2. TGI was calculated as:
# % TGI={(TV ControlFinal−TV ControlInitial)−(TV TreatedFinal−TV TreatedInitial)}×100
# (§1) At the end of the study, brain and plasma samples were collected for drug concentration. Tumor tissues were collected for immunohistochemistry, Western blot, and bioanalysis. Statistical analysis of tumor growth in the control and treated groups was performed by Student's T test using GraphPad Prism (Ver. 5.03).
# wild-type C. elegans = assay: C. elegans lifespan; type: in vivo
# Description: Synchronized populations of wild-type L1 C. elegans hatched overnight were transferred to agar plates followed by VMY-BC-1 was added freshly from a 5 mM stock to the NGM media. Water was used as control. The L4 population of worms was randomly split to control or treatment groups in a density of about 20-30 worms per 6 cm plate dish.
# The first day of adulthood was considered day one. In all the experiments with late-onset administration of VMY-BC-1, synchronized L4 animals were moved to the media supplemented with 5′-fluorodeoxyuridine (FUDR, Cayman chemicals) at a final concentration of 1 μM for 2 days to prevent reproduction, then were moved to FUDR-free NGM plates until the final treatments at day 10. The animals that crawled off the plate, ruptured, or died from internal hatching were censored. Worms were transferred to fresh plates every day after reaching adulthood, and every 2 days after reaching 10 days of age. Prodding test was used to count the number of dead worms. Survival curve was plotted using Prism 7 and the significance of the curves calculated by Log-rank (Mantel-Cox) test.
# Synchronized populations of polyQ-expressing C. elegans were grown for 72 hours on media containing 1 μM VMY-BC-1. PolyQ aggegrative vacuoles were detected using confocal microscopy. PolyQ aggregations were decreased compared to vehicle (DMSO) (FIG. 21A). […]
# [4] = Plasma vs tumor PK in MDA-MB-231 xenograft mice; type: in vivo, athymic nude mice
# Description: FIGS. 10A and 10B are graphs showing plasma (FIG. 10A) and tumor (FIG. 10B) concentrations of VMY-BC-1 in MDA-MB-231 xenograft mice administered 75 mg/kg VMY-BC-1.
# as §1
# The impact of VMY-BC-1 on autophagy proteins in tumor tissue was also investigated. […] Finally, as shown in Table 4 and FIGS. 10A and 10B, VMY-BC-1 had 3-fold higher drug concentration (Cmax) in tumors than in plasma.
# [5] = Mouse brain homogenate binding (in vitro binding study); type: in vitro ADME
# Description: Free drug fraction in brain and plasma compartment was determined in vitro (Table 7). Brain to plasma (B/P) ratio was also determined in vivo (Table 8).
# CYP2D6 = target: T1, CYP2D6 (Homo sapiens, UniProt P10635); assay: CYP inhibition in pooled human liver microsomes; type: in vitro ADME
# T1 construct: from tissue; host or cells: pooled human liver microsomes
# T1 sequence (P10635 whole entry): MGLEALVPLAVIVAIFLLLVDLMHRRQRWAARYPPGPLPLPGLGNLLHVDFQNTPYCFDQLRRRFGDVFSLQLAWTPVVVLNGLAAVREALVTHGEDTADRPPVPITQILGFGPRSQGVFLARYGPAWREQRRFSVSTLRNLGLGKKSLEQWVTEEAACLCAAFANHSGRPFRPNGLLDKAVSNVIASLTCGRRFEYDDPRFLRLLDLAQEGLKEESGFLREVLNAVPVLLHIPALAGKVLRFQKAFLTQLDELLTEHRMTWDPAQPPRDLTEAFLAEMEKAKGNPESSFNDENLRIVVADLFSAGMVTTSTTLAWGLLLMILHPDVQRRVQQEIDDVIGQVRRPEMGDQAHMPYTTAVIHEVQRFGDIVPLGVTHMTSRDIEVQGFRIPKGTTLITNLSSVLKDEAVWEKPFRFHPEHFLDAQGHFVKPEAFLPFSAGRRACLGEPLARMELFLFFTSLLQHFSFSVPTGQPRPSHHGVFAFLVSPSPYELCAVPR
# [6] = mouse, brain, read-out: Brain level, Mean (4) ± SE
# [7] = mouse, plasma, read-out: Plasma level, Mean (4) ± SE
# [8] = athymic nude, mouse, Plasma, oral 75 mg/kg
# [9] = athymic nude, mouse, Tumor, oral 75 mg/kg
compound,measurement,setting,value
COc1ccc(/C=C/c2cc(OC)cc(B(O)O)c2)cc1 [VMY-BC-1],PolyQ aggregations vs vehicle (DMSO),[1],decreased
same,"Brain level, Mean (4) ± SE",[2]; 0 min,BQL
same,"Plasma level, Mean (4) ± SE",[2]; 0 min,BQL
same,"Brain level, Mean (4) ± SE",[2]; 360 min,BQL
same,"Plasma level, Mean (4) ± SE",[2]; 360 min,BQL
same,"Brain level, Mean (4) ± SE",[2]; 900 min,BQL
same,"Plasma level, Mean (4) ± SE",[2]; 900 min,BQL
same,"Brain level, Mean (4) ± SE",[2]; 1440 min,BQL
same,"Plasma level, Mean (4) ± SE",[2]; 1440 min,BQL
same,terminal elimination rate constant (lambda z),[2]; Brain,0.0156 min⁻¹
same,terminal elimination rate constant (lambda z),[2]; Plasma,0.0157 min⁻¹
same,concentration at 30 min,[2]; [6],1560 ± 237 ng/g
same,concentration at 60 min,[2]; [6],1400 ± 211 ng/g
same,concentration at 180 min,[2]; [6],169 ± 58 ng/g
same,concentration at 30 min,[2]; [7],578 ± 55 ng/mL
same,concentration at 60 min,[2]; [7],470 ± 61 ng/mL
same,concentration at 180 min,[2]; [7],60 ± 48 ng/mL
same,Cmax,"[2]; mouse, Brain",1560 ng/g
same,Tmax,"[2]; mouse, Brain",30 min
same,half-life,"[2]; mouse, Brain",44.3 min
same,AUC(0-inf),"[2]; mouse, Plasma",865 ng·h/mL
same,AUC(0-t),"[2]; mouse, Plasma, read-out: AUC(0-t) (converted)",803 ng·h/mL
same,Cmax,"[2]; mouse, Plasma",578 ng/mL
same,Tmax,"[2]; mouse, Plasma",30 min
same,half-life,"[2]; mouse, Plasma",44 min
same,Body weight,[3]; 75 mg/kg PO daily for 14 days,without any apparent change in body weight
same,Tumor growth inhibition,[3]; 75 mg/kg PO daily for 14 days,approximately 30%
same,Apoptosis by TUNEL staining,"[3]; tumor tissue, 75 mg/kg PO",significant increase in apoptosis
same,Reduction in Ki67 proliferation marker vs control,"[3]; tumor tissue, 75 mg/kg PO",50%
same,Phospho-ULK1 and LC3 protein expression in tumors,"[3]; tumor tissue, 24 hours after treatment",upregulated
same,Maximal median lifespan extension,wild-type C. elegans; 1 μM,~25%
same,Lifespan,wild-type C. elegans; 0.1 to 10 μM,dose-dependent lifespan extension
same,Drug levels in tumor vs plasma,[4]; 75 mg/kg oral,higher VMY-BC-1 drug levels in tumor than in plasma
same,AUCextrap,"[4]; Plasma, oral 75 mg/kg",0.34%
same,AUCextrap,"[4]; Tumor, oral 75 mg/kg",7.48%
same,AUCinf,"[4]; Tumor, oral 75 mg/kg",41005.56 ng·h/g
same,AUClast,"[4]; Tumor, oral 75 mg/kg",37936.36 ng·h/g
same,Kp,"[4]; athymic nude, mouse, tumor and plasma, 75 mg/kg oral, read-out: Cmax in tumors relative to plasma",3
same,AUC(0-inf),[4]; [8],32300 ng·h/mL
same,AUC(0-t),[4]; [8],32200 ng·h/mL
same,Cmax,[4]; [8],4530 ng/mL
same,MRT last,[4]; [8],346 min
same,Tmax,[4]; [8],30 min
same,half-life,[4]; [8],189 min
same,Cmax,[4]; [9],13600 ng/g
same,MRT last,[4]; [9],116 min
same,Tmax,[4]; [9],60 min
same,half-life,[4]; [9],91.2 min
same,Bound (%),[5]; Mouse Brain Homogenate,30.08%
same,fraction unbound,[5]; Mouse Brain Homogenate,0.699
same,recovery,"[5]; mouse, mouse brain homogenate",108%
same,IC50,CYP2D6,> 100 µM
